Experimental data reported in patent US20090137784A1, “Epidermal Growth Factor Receptor Polypeptides and Antibodies” (priority 2005, published 2009).
*: point of attachment. Biotin = O=C1N[C@H]2[C@H](CS[C@H]2CCCCC(=O)*)N1

Tests used:
Format in all cases: cell-based
EGFR [1] = target: T1, EGFR (Homo sapiens, UniProt P00533); experiment: Biotinylated cyclic polypeptides tested for inhibition of EGFR phosphorylation in a model HMEC cell system; conditions: biotinylated cyclic polypeptide
T1 construct: endogenous in cells; host or cells: 184A1 human mammary epithelial cells (parental HMEC); also 24H HMEC line (overexpresses HER2)
Source text: We selected amino acid sequences corresponding to fragments of Domain II and Domain IV of EGFR. The sequence of each polypeptide is shown in the first column of Table 1. The polypeptides were chosen based on their positions on the crystal structures of monomeric and dimeric EGFR (Burgess et al, Mol. Cell. 12:541-552, 2003). Although Domain IV of EGFR is not resolved in the dimer crystal structure, it is believed that portions of Domain IV come into contact upon dimerization. […] We generated biotinylated cyclic polypeptides that included each sequence and tested them in a model HMEC cell system. The sequences of the biotinylated cyclic polypeptides are shown in the third column of Table 1. […] For the LYNPTTYQMD polypeptide, the different results obtained from polypeptide and polyclonal antisera inhibition could be due to differences in the quantitative details of the assays, or the polypeptide could have a lower affinity for the receptor than the polyclonal antisera does.

EGFR [2] = target: T1, EGFR; experiment: Quantitative Western blot of EGFR tyrosine 1173 phosphorylation in HMECs treated with rabbit polyclonal antisera; conditions: for relative EGFR tyrosine 1173 phosphorylation: HMECs, 2 hours with antisera, then 25 nM EGF for 5 minutes, FIG. 1; for Polyclonal antisera inhibition (EGFR phosphorylation): rabbit polyclonal antisera, 184A1 human mammary epithelial cells
Procedure: Anti-domain II and anti-domain IV rabbit polyclonal antisera were generated against polypeptides LYNPTTYQMD (SEQ ID NO: 1) and MGENNT (SEQ ID NO:4). Briefly, rabbits were injected with one of the peptides, and the resulting antisera were collected. The rabbit sera were purified by ammonium sulfate precipitation followed by desalting. These polyclonal antisera were then used to treat human mammary epithelial cells (HMECs) and to measure the antisera's effect on EGFR tyrosine 1173 phosphorylation by quantitative Western blot analysis. HMECs were grown to 80% confluence and incubated for 2 hours in serum-free media containing various concentrations of the rabbit polyclonal antisera. The cells were then washed and incubated with 25 nM EGF for 5 minutes. The cells were lysed, and the proteins in the lysate were run on a SDS-PAGE gel and transferred onto PDVF membranes. Blots were detected using an anti-EGFR phosphotyrosine 1173 antibody and horseradish peroxidase, and band intensity was quantified using Kodak® 1D 3.5 software. The results are shown in FIG. 1 as relative EGFR tyrosine 1173 phosphorylation in the presence of varying concentrations of polyclonal antisera. The tyrosine phosphorylation in the presence of antiserum has been normalized by total EGFR intensity and tyrosine phosphorylation in the absence of antiserum.
Additional quantitative Western blot analysis was performed to examine EGFR 1173 tyrosine phosphorylation and HER21248 tyrosine phosphorylation in normal, parental HMECs, as well as a 24H HMEC line which overexpresses HER2 (Hendriks et al., Cancer Res. 63:1130-1137, 2003). Western blot analysis was described as above, and the results are depicted in FIGS. 3-6. […] P DII and P DIV are the polyclonal antisera against polypeptides LYNPTTYQMD (SEQ ID NO:1) and MGENNT (SEQ ID NO:4), respectively. For comparison, P 225 is a commercially purchased monoclonal antibody that blocks EGFR ligand binding (Sato et al., Mol. Biol. Med. 1:511-529, 1983). Negative controls are indicated by a (−). […] FIGS. 5 and 6 show relative HER2 1248 tyrosine phosphorylation in parental and 24H HMECs, respectively. The results in FIGS. 3-6 indicate that antibodies that bind to polypeptides LYNPTTYQMD (SEQ ID NO:1) and MGENNT (SEQ ID NO:4) of EGFR can reduce both EGFR and HER2 phosphorylation in normal HMECs, as well as those overexpressing HER2.

[3] = target: T2, heterodimerization of HER2 with EGFR (Homo sapiens, UniProt P00533); experiment: Co-immunoprecipitation of HER2 with EGFR from HMEC lysates; conditions: HMECs, antiserum 0.1 and 1 μM; FIG. 2
T2 construct: EGFR in each sample was immunoprecipitated from HMEC lysates using an anti-EGFR antibody; endogenous in cells; host or cells: HMEC (human mammary epithelial cells)
Procedure: Next, we analyzed the amount of HER2 co-immunoprecipitated with EGFR in the presence and absence of rabbit polyclonal antiserum against peptide MGENNT. HMECs were treated as before with the antiserum. EGFR in each sample was immunoprecipitated from HMEC lysates using an anti-EGFR antibody obtained from Santa Cruz Biotechnology, Inc. Immunoprecipitates were resolved by SDS-PAGE and blotted with anti-HER2 antibody (Cell Signaling). The results are depicted in FIG. 2, where N is the non-EGF stimulated negative control, P is the cells with no rabbit antisera incubation, and 0.1 and 1 are the concentrations of rabbit polyclonal antisera in μM.

## LYNPTTYQMD [Biotin-GCGLYNPTTYQMDGCG-CONH2]
EGFR [1]
  Peptide Inhibition (EGFR phosphorylation): No

## Biotin-GCGLYNPTTYQMDGCG-NH2 (cysteine pairing not given here)
EGFR [2]
  relative EGFR tyrosine 1173 phosphorylation: decrease the tyrosine phosphorylation of EGFR
  Polyclonal antisera inhibition (EGFR phosphorylation): Yes

## Biotin-Aha-CMGENNTG-CONH2
EGFR [1]
  Peptide Inhibition (EGFR phosphorylation): Yes
EGFR [2]
  relative EGFR tyrosine 1173 phosphorylation: decrease the tyrosine phosphorylation of EGFR
  Polyclonal antisera inhibition (EGFR phosphorylation): Yes
[3]
  HER2 co-immunoprecipitated with EGFR: less HER2 is co-immunoprecipitated with EGFR

## CRNVSRGREC [Biotin-GCRNVSRGRECG- CONH2]
EGFR [1]
  Peptide Inhibition (EGFR phosphorylation): Yes

## CAHYIDGPHC [Biotin-GCAHYIDGPHCG-CONH2]
EGFR [1]
  Peptide Inhibition (EGFR phosphorylation): Yes

## LVWKYADAG [Biotin-GCLVWKYADAGCG-CONH2]
EGFR [1]
  Peptide Inhibition (EGFR phosphorylation): Yes
